Data: US9139589B2, “Heteroaryls and uses thereof” (Millennium Pharmaceuticals, Inc., priority 2009, dated 2015)

Target: T1, PI3Kalpha (Homo sapiens, UniProt P42336)
T1 construct: His (N); host or cells: SF9 insect cells (baculovirus co-infection)
Experiment: PI3K enzyme HTRF assay (PI3Kalpha)
Type: biochemical
From the text: Active phosphatidylinositol 3′ kinase (PI3K) enzyme is purified at Millennium Pharmaceuticals from SF9 insect cells (Invitrogen) co-infected with baculovirus containing amino-terminal His-tagged p110α and p85α expression constructs.
The PI3K enzyme HTRF® assay makes use of an energy transfer complex comprised of biotin-PI(3,4,5)P3, Europhium labeled anti-GST monoclonal antibody, a GST-tagged GRP1 pleckstrin homology (PH) domain, and Streptavidin-APC (allophycocyanin). Excitation of the Europium in the complex results in a stable time-resolved fluorescence resonance energy transfer (FRET) signal. Phosphatidylinositol 3,4,5 triphosphate (PI(3,4,5)P3, the product of PI3K, disrupts the energy transfer complex by competing with biotin-PI(3,4,5)P3 for binding to the GRP1 PH domain, resulting in a decreased fluorescent signal. Inhibitors of PI3K in the reaction prevent a decrease in the fluorescent signal.
PI3K enzyme (325 pM) is incubated with di-C8 PI(4,5)P2 substrate (3.5 μM, CellSignals, Inc.) in assay buffer (50 mM HEPES pH 7.0, 5 mM DTT, 150 mM NaCl, 10 mM β-glycerophosphate, 5 mM MgCl2, 0.25 mM sodium cholate, 0.001% CHAPS) containing 25 μM ATP and 0.5 μL of test compound (in 100% DMSO) at multiple concentrations in a final volume of 20.5 μL in 384 well plates for 30 min at 22-23° C. […] Fluorescent signal for each well is then measured on an LJL_Analyst (Molecular Devices). […]

T1 sequence (P42336 whole entry): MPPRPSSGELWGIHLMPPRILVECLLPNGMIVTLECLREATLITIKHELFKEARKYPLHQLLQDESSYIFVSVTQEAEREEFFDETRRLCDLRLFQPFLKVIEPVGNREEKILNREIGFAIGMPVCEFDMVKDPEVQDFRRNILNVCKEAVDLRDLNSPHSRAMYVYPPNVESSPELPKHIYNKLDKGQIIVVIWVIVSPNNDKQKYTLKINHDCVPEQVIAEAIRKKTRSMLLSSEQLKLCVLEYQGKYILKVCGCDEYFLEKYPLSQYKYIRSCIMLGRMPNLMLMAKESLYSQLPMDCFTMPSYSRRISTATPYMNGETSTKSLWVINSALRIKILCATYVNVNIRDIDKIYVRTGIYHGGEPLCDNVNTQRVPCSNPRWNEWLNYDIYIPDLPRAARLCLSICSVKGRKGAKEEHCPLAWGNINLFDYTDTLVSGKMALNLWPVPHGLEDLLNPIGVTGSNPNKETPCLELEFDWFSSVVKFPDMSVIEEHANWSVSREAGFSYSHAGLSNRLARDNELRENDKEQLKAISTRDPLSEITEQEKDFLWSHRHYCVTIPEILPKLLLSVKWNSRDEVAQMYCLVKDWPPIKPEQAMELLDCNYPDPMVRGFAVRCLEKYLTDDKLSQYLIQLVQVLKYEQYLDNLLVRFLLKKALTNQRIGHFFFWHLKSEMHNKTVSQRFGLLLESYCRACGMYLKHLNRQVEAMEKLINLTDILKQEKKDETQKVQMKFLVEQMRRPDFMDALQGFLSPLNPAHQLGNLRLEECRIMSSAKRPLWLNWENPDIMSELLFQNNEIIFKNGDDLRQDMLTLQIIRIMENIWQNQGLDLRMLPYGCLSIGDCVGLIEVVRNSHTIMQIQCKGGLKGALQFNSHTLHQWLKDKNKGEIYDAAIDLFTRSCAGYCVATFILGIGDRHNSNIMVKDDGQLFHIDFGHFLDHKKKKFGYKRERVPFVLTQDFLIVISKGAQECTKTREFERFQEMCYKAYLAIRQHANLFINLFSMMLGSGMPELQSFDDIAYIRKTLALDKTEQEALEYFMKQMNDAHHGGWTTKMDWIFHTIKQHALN
T1 sequence (P27986 whole entry partner): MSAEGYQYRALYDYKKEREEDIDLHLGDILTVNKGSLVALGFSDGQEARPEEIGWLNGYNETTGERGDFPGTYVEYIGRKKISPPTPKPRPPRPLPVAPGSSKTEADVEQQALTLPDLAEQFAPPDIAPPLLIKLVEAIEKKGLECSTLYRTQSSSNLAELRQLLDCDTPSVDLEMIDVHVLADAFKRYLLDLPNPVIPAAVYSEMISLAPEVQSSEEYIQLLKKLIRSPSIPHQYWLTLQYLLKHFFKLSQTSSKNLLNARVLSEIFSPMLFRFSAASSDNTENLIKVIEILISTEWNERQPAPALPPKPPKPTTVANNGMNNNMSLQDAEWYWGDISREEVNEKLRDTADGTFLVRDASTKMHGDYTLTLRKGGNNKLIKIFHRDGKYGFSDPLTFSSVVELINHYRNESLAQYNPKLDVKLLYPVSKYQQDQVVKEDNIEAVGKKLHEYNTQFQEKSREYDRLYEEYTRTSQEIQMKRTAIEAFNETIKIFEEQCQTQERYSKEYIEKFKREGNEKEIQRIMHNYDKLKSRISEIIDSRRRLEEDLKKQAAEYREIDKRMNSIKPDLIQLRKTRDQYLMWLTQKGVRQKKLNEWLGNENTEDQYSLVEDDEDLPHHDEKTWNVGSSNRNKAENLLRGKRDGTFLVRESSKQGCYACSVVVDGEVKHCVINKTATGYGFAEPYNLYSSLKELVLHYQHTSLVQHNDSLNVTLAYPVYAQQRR

`CC(=O)Nc1cc(-c2nc(-c3ccccc3Cl)c(NC(C)=O)s2)ccn1` [Example C-1, N-{4-[5-(acetylamino)-4-(2-chlorophenyl)-1,3-thiazol-2-yl]pyridin-2-yl}acetamide] was tested, and the IC50 was over 1000 nM.
